# Laboratory results from patent US10039806B2, “Methods and compositions for treating antiprogestin-resistant cancers” (Fundación Sales, priority 2011, dated 2018).
# Columns and labels:
# [1] = test system: C4-2-HI and 59-HI cells; assay: (3H)-thymidine incorporation with 5azadC and RU-486 in 10% FCS; type: cell-based, mouse; conditions: 5 μM 5azadC, 100 nM RU-486; P<0.001
# Procedure: (3H)-thymidine-uptake was used as an indirect method to evaluate cell proliferation. In brief, cells were seeded into 96-well microplates. After attachment (24 h), the cells were incubated for 24 h with 1% steroid-stripped FCS and then for 48 h with the experimental solutions to be tested in 1% chFCS. Fifty percent of the medium was replaced with fresh medium every 24 h. […] In experiments in which 5azadC was used, the experiments were carried out using proliferating cells (presence of 10% FCS) to guarantee the effect of the demethylating agent. Three different experiments were made using octuplicates, and the means and standard deviations of one representative experiment of the other three are shown.
# [2] = test system: 59-HI tumors; assay: Constitutive-resistant tumor transplanted s.c. in BALB/c mice; type: in vivo, mouse; conditions: RU-486 12 mg/kg/day s.c.; 5azadC 1 mg/kg every other day i.p.; 13 days
# Procedure: (§1) C4-2-HI, 59-HI, and C4-HIR tumors were transplanted s.c nearby the mammary gland 4th in syngenic mice, and measured every 2 days (length and width). Treatments were initiated when the tumors were palpable. […] The mice were inoculated intraperitoneally (i.p.) with 0.75 mg/kg 5azadC (for C4-2-HI and C4-HIR tumors) or 1 mg/kg 5azadC (for 59-HI tumors) every other day. All the experiments were repeated twice using five mice per group. The animals were euthanized after 13 days of treatment, and tumor samples were removed and frozen at −80° C. or fixed in 10% formaldehyde.
# (§2) Cytosolic or nuclear extracts were processed for western blots as described previously. The cells were lysed using Mammalian Protein Extraction Reagent (Pierce, Rockford, Ill.) according the manufacturer's instructions. The western blot membranes were incubated with antibodies against PR (C-19, Santa Cruz Biotech, CA, or Ab-7, Neomarkers, Lab Vision Corp, Fremont, Calif.), PRB (Ab-6, Neomarkers), ERKs (SC-94, Santa Cruz Biotech), E-Cad (610182, BD), Actin (1-19, Santa Cruz Biotech), DnmtI, Dnmt3a and Dnmt3b (H-300, H-295, and H-230, respectively, Santa Cruz Biotech), RARβ (SC-14028, Santa Cruz Biotech), PTEN Ab32199, Abcam), p16 (SC-1207, Santa Cruz Biotech), Rb (SC-50, Santa Cruz Biotech), or glucocorticoid receptors (GRs) (SC-1004, Santa Cruz Biotech) overnight at 4° C., at a concentration of 2 μg/ml in PBST (0.8% NaCl, 0.02% KCl, 0.144% Na2PO4, 0.024% KH2PO4, pH 7.4, 0.1% Tween 20). The band intensities from 3 to 4 different tumor samples indifferent western blots were quantified using Image Quant software.
# (§3) Sections of formalin-fixed, paraffin-embedded tissue were processed as previously described and stained with the PRA-specific antibody (C-19) using the avidin-biotin-peroxidase complex technique (Vectastain Elite ABC kit; Vector), as described previously.
# (§4) H&E stained sections of livers, spleens, and kidneys from the 5azadC-treated mice (1 mg/kg or 0.75 mg/kg/every other day; n=5) were studied by an expert mouse pathologist. The percentage of tumor stoma versus tumor parenchyma was quantified with the ImageJ software in treated and untreated tumors. The stromal area in relation to the total tumor area was calculated in five representative fields of each sample, using 400× magnification, in three different tumor samples of each group, and the mean±SEM was calculated. Mitotic and apoptotic indices were counted in 10 and 15 high-power fields (HPFs), respectively, of each section, using 1000× magnification, and expressed as the mean±SEM of the percentage of the ratios between the total number of events (mitosis or apoptosis) and the total cell number per HPF. Mitotic figures were identified morphologically by the condensed “hairy” aspect of the chromosomes. Morphological identification of apoptosis was performed according to criteria previously reported, which correlated with the deoxynucleotidyl transferase mediated dUTP-biotin nick end labeling (TUNEL) method.
# as §1, with “C4-2-HI” for “C4-2-HI, 59-HI,”, “59-HI” for “C4-HIR”, “every other day” for “(for C4-2-HI”, “s.c. with” for “C4-HIR tumors) or”, “TSA” for “5azadC (for 59-HI tumors)”, “−80 C” for “−80° C.”
# [3] = test system: C4-2-HI tumors; assay: as above; type: in vivo, mouse
# Procedure: as §1, §2, §3, §4
# as §1, with “C4-2-HI” for “C4-2-HI, 59-HI,”, “59-HI” for “C4-HIR”, “every other day” for “(for C4-2-HI”, “s.c. with” for “C4-HIR tumors) or”, “TSA” for “5azadC (for 59-HI tumors)”, “−80 C” for “−80° C.”
# [4] = test system: C4-HI; assay: MPA breast cancer model, responsive tumor in vivo; parameters: species or system mouse
# [5] = test system: primary cultures of responsive tumors; assay: Primary cultures of responsive tumors of the MPA model; type: cell-based, mouse
# [6] = test system: C4-HI; conditions: concentrations lower than growth inhibitory ones; cited from earlier work
# [7] = test system: HI-responsive tumors; conditions: daily doses of 10 mg/kg; cited from earlier work
# [8] = test system: mammary hyperplasias and carcinomas; conditions: pellets of 35 mg; cited from earlier work
# [9] = test system: MCF-7 cells; conditions: cited from earlier work
# [10] = test system: T47D cells; conditions: cited from earlier work
# [11] = test system: MCF-7 xenografts; conditions: MIF 50 mg/kg/day, ONA 30 mg/kg/day, 17 days; cited from earlier work
# [12] = test system: meningiomas; conditions: 200 mg/day for 2-31 months; after one year; cited from earlier work
# [13] = test system: thymic, renal pelvis, colon, pancreatic carcinomas, leiomyosarcoma, histiocytoma; conditions: 200 mg/day; cited from earlier work
# [14] = test system: mammary glands; conditions: 50 mg/every other day, three months; cited from earlier work
# [15] = test system: mammary gland; conditions: cited from earlier work
# [16] = test system: prostate and ovarian cancer xenografts; conditions: 50 mg/kg/day; cited from earlier work
smiles,measurement,setting,value
"CC#C[C@]1(O)CC[C@H]2[C@@H]3CCC4=CC(=O)CCC4=C3[C@@H](c3ccc(N(C)C)cc3)C[C@@]21C [RU-486, mifepristone]","cell proliferation, (3H)-thymidine incorporation",[1],did not alter cell proliferation
same,tumor growth,[2],no significant differences
same,tumor growth,"[3]; RU-486 12 mg/kg/day s.c., 5azadC 0.75 mg/kg every other day i.p., 13 days",no significant differences
same,"tumor growth, MIF alone","[3]; tumor only expresses PR-B, FIG. 15",stimulated
same,differentiation (histology),"[4]; mouse, in vivo",increase in differentiation
same,tumor growth,"[4]; tumors with higher PR-A than PR-B, FIG. 15",completely inhibited
same,ERK phosphorylation,[5],increased ERK phosphorylation
same,tumor growth at low doses,[6],stimulated C4-HI growth
same,tumor regression,[7],regress
same,induction of hyperplasia or carcinoma,[8],prevented the induction of either hyperplasia or carcinoma
same,E2-induced cell proliferation,"[9]; 10 nM, 10% steroid-deficient human serum",inhibited E2-induced cell proliferation
same,PR-mediated cell proliferation,[9],inhibited PR-mediated cell proliferation
same,progesterone-induced cell proliferation,[9]; nanomolar concentrations,inhibit progesterone-induced cell proliferation
same,effects on T47D cells,[10]; 5% FCS,inhibitory effects
same,proliferation of T47D and MCF-7 cells,[10]; MIF at micromolar concentrations,stimulate the proliferation
same,E2-induced cell proliferation,"[10]; clone 11, ER- and PR-positive",specifically inhibit E2-induced cell proliferation
same,E2-induced proliferation of xenografts,[11],inhibited
same,tumor response,[12],Five out of thirteen tumors responded
same,clinical outcome,[13],Improvements and pain relief were observed in all patients
same,cell proliferation in mammary gland aspirates,[14],Inhibition of cell proliferation
same,PR activation in luminal cells,[15]; (5 mg/kg) body weight,induced activation of the PR in luminal cells to an even greater degree than did the pure agonist R5020
same,MPA-induced branching,"[15]; BALB/c female mice, 10 mg/kg daily, one week",reverted MPA-induced branching
same,mammary hyperplasia,[15]; PR-A transgenic mice or FGF2-treated mice,unable to revert mammary hyperplasia
same,xenograft growth,[16],inhibitory
